{"source": "patent US5352770A", "about": "“Porcine derived novel physiologically active peptide” (priority 1990, dated 1994)", "key": {"[1]": {"test_system": "rats", "conditions": "cited from earlier work"}, "[2]": {"test_system": "chick rectum", "test": "Chick rectum relaxant activity", "conditions": "fold activity versus α-hANP", "experimental": "Chick rectum relaxant activity was measured in accordance with the method of Curtie et al. (Cuttle et al., Nature, 221, 1-13, 1983)."}, "[3]": {"test_system": "Male SD rats", "test": "Natriuretic and hypotensive actions in anesthetized rats after intravenous administration", "type": "in vivo, rat", "conditions": "for Blood pressure drop / Cl- excretion / K+ excretion / Na+ excretion / Urine excretion: change in 15 min after administration vs before, mean±S.D., 4 animals", "experimental": "Male SD rats (body weight: 230-290 g) were anesthetized by intraperitoneal injection with 65 mg/kg of pentobarbital and fitted with a tracheotomy tube (PE-240 of Clay Adams) in order to insure the respiratory tract. A cannula (PE-50) for blood pressure measurement was inserted into the hip artery and a Ringer's solution was injected at a steady rate of 1.8 ml/hr through a cannula (PE-10) inserted into the hip vein. A urinary sample was taken into a test tube through a cystic cannula in the form of a Silastic tube (i.d. 0.02 inch; o.d. 0.037 inch; Dow Corning). Urinary samples were taken both for 15 minutes before the administration of the test substance and until 15 minutes after the administration at 5 min interval, followed by subsequent sampling at predetermined time intervals. By comparing the amount of each sample with the concentration of an electrolyte in it, as well as by measuring the blood pressure changes, the actions of the test substance were evaluated.\nThe test substance CNP was dissolved in a predetermined amount in 0.1 N acetic acid and thereafter neutralized with a 1/10 volume of 1.3 M Tris solution. The sample was diluted with 50 μl of sterilized physiological saline and administered via the cervical vein.\nData are shown in terms of mean±S.D., as obtained from each group of 4 animals, of the change that occurred in the 15-min period from the administration of the test substance, as compared to the state before the administration."}, "[4]": {"test_system": "VSMC of rats", "test": "Cell growth suppressing activity ([3H]thymidine uptake)", "type": "cell-based, rat", "conditions": "cultured vascular smooth muscle cell line", "experimental": "Cell growth suppressing ability was evaluated in accordance with the method of Kariya et al. (Atherosclerosis, 80, 143-147, 1990) by measuring the uptake of ^3 H thymidine into cells as an indicator of DNA synthesis activity using VSMC of rats. Cells tuned to a stationary phase were incubated in 1% serum at 37° C. for 14 h together with various concentrations of α-hANP or CNP; following the addition of 37 KBq/ml [^3 H]thymidine, the incubation was continued for another 4 h. The radioactivity of [^3 H] thymidine incorporated into the cells was measured. The values of measurement were such that the radioactivity of [^3 H] thymidine for the case where only 1% serum was added in the absence of peptide was taken as 100%, with the percent suppression due to the peptide at the respective concentrations being accordingly calculated."}, "[5]": {"test_system": "cultured vascular smooth muscle cell line", "test": "cGMP production in cultured vascular smooth muscle cell line", "type": "cell-based"}}, "note": "Positions of bridges follow the written chain, without caps; N, C: chain ends. No end group written: not given here.", "data": [{"molecule": "pBNP: porcine-derived brain natriuretic peptide, single-stranded peptide composed of 26 amino acids having a single S--S bond (DSGCFGRRLDRIGSLSGLGCNVLRRY; disulfide 4-20 (inferred); UniProt P07634 106-131, looked up)", "values": [{"measurement": "Natriuretic and hypotensive actions compared with α-hANP (in words)", "setting": "[1]", "result": "comparable levels of natriuretic and hypotensive actions to α-hANP"}]}, {"molecule": "CC[C@H](C)[C@@H]1NC(=O)[C@H](CCCNC(=N)N)NC(=O)[C@H](CC(=O)O)NC(=O)[C@H](CC(C)C)NC(=O)[C@H](CCCCN)NC(=O)[C@H](CC(C)C)NC(=O)CNC(=O)[C@H](Cc2ccccc2)NC(=O)[C@@H](NC(=O)CNC(=O)[C@H](CCCCN)NC(=O)[C@H](CO)NC(=O)[C@H](CC(C)C)NC(=O)CN)CSSC[C@@H](C(=O)O)NC(=O)CNC(=O)[C@H](CC(C)C)NC(=O)CNC(=O)[C@H](CO)NC(=O)[C@H](CCSC)NC(=O)[C@H](CO)NC(=O)CNC1=O", "note": "[CNP]", "values": [{"measurement": "Chick rectum relaxant activity relative to α-hANP", "setting": "[2]", "result": "3 - 4 times"}, {"measurement": "Blood pressure drop", "setting": "[3]; CNP dose 12 nmol/kg i.v.", "result": "6.7 ± 1.7", "unit": "mmHg"}, {"measurement": "Cl- excretion", "setting": "[3]; CNP dose 12 nmol/kg i.v.", "result": "228 ± 32", "unit": "%"}, {"measurement": "K+ excretion", "setting": "[3]; CNP dose 12 nmol/kg i.v.", "result": "220 ± 43", "unit": "%"}, {"measurement": "Na+ excretion", "setting": "[3]; CNP dose 12 nmol/kg i.v.", "result": "192 ± 28", "unit": "%"}, {"measurement": "Urine excretion", "setting": "[3]; CNP dose 12 nmol/kg i.v.", "result": "229 ± 38", "unit": "%"}, {"measurement": "Blood pressure drop", "setting": "[3]; CNP dose 80 nmol/kg i.v.", "result": "16.7 ± 4.2", "unit": "mmHg"}, {"measurement": "Cl- excretion", "setting": "[3]; CNP dose 80 nmol/kg i.v.", "result": "301 ± 83", "unit": "%"}, {"measurement": "K+ excretion", "setting": "[3]; CNP dose 80 nmol/kg i.v.", "result": "167 ± 29", "unit": "%"}, {"measurement": "Na+ excretion", "setting": "[3]; CNP dose 80 nmol/kg i.v.", "result": "286 ± 125", "unit": "%"}, {"measurement": "Urine excretion", "setting": "[3]; CNP dose 80 nmol/kg i.v.", "result": "251 ± 62", "unit": "%"}, {"measurement": "Blood pressure drop", "setting": "[3]; CNP dose 160 nmol/kg i.v.", "result": "14.2 ± 5.2", "unit": "mmHg"}, {"measurement": "Cl- excretion", "setting": "[3]; CNP dose 160 nmol/kg i.v.", "result": "400 ± 45", "unit": "%"}, {"measurement": "K+ excretion", "setting": "[3]; CNP dose 160 nmol/kg i.v.", "result": "238 ± 46", "unit": "%"}, {"measurement": "Na+ excretion", "setting": "[3]; CNP dose 160 nmol/kg i.v.", "result": "371 ± 69", "unit": "%"}, {"measurement": "Urine excretion", "setting": "[3]; CNP dose 160 nmol/kg i.v.", "result": "421 ± 40", "unit": "%"}, {"measurement": "Natriuretic and hypotensive actions (in words)", "setting": "[3]; rats, intravenous, 12-160 nmol/kg", "result": "those actions increased in a dose-dependent manner"}, {"measurement": "Growth inhibiting action on vascular smooth muscle cells (in words)", "setting": "[4]", "result": "had a growth inhibiting action"}, {"measurement": "Activity for promoting the production of cGMP (in words)", "setting": "[5]", "result": "found to have an activity for promoting the production of cyclic guanosine monophosphate"}]}]}
